{"source": "paper PMC5374635", "about": "“Inhibitory Potential of Constituents from Osmanthus fragrans and Structural Analogues Against Advanced Glycation End Products, α-Amylase, α-Glucosidase, and Oxidative Stress” (Scientific Reports, 2017)", "key": {"[1]": {"tested_on": "AGEs formation", "experiment": "Inhibition of AGEs formation (bovine serum albumin with fructose/glucose, fluorescence)", "assay_type": "biochemical", "settings": "for IC50 values, AGE (inhibition of AGEs formation): means ± SE, 37 °C, 7 days; for times more active than aminoguanidine in inhibition of AGEs formation: ratio of IC50 values versus aminoguanidine", "procedure": "The inhibitory activity against AGEs formation was measured as described previously. To prepare the AGEs reaction solution, bovine serum albumin (10 mg/mL) dissolved in 50 mM SPB (pH 7.4) was added to 200 mM fructose, 200 mM glucose, and 0.02% NaN3 to prevent the growth of bacteria. The reaction solution (950 μL) was mixed with various concentrations of the samples (50 μL) in 10% (CH3)2SO. After incubation at 37 °C for 7 days, the fluorescence intensity of the reaction solution was analyzed using a spectrofluorometric detector (Bio-Tek Inc., Winooski, VT, USA) with an excitation wavelength of 350 nm and an emission wavelength of 450 nm. Aminoguanidine hydrochloride served as a positive control."}, "[2]": {"target": "T1, porcine pancreatic α-amylase (EC 3.2.1.1, type VI) (Sus scrofa, UniProt P00690)", "T1 construct": "purchased Sigma-Aldrich (St. Louis, MO, USA) type VI (catalogue number not given)", "T1 sequence (P00690 16-511)": "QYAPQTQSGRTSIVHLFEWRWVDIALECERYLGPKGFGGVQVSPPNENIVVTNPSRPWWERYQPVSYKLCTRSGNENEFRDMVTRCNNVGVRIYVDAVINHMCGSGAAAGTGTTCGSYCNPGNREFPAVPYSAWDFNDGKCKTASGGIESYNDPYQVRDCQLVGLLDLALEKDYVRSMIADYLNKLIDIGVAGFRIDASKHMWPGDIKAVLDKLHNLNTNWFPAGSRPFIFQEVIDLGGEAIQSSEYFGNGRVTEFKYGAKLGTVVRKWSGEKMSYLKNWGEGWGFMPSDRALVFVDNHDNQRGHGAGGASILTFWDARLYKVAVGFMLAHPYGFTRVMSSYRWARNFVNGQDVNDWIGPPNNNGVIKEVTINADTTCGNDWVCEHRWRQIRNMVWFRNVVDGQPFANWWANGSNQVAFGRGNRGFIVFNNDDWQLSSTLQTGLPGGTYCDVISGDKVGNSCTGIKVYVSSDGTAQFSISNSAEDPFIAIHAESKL", "experiment": "α-Amylase inhibition", "assay_type": "biochemical", "settings": "for IC50: means ± SE; for times more active than acarbose against α-amylase: ratio of IC50 values versus acarbose", "procedure": "The inhibitory activity of each sample against α-amylase was measured as described previously. Sample (40 μL) dissolved in sodium phosphate buffer (SPB, 20 mM and pH 6.9) with 6 mM NaCl was added to 1.0 U/ml α-amylase (200 μL) in SPB and incubated at 30 °C for 10 min. After 10 min, 400 μL of 0.3% starch solution in SPB was added to each tube. […] Each tube was incubated in boiling water for 20 min and cooled to 27 °C. The reaction was diluted by adding 10 ml distilled water and absorbance at 540 nm was measured using a UV-Vis spectrophotometer. The control contained 20 mM SPB (pH 6.9, 200 μL) instead of α-amylase."}, "[3]": {"target": "α-glucosidase (EC 3.2.1.20)", "settings": "for IC50 values, α–Glucosidase: means ± SE; for times more active than acarbose against α-glucosidase: ratio of IC50 values versus acarbose"}, "[4]": {"tested_on": "blood glucose levels in mice", "experiment": "Disaccharide (sucrose) loading test", "assay_type": "in vivo", "settings": "fasted male mice, 50 mg/kg via stomach tube with sucrose 2.5 g/kg, at 15 and 30 mins, compared to sucrose alone", "procedure": "After an overnight fast, male mice (31-35 g) were used for acute disaccharide loading tests (Fig. 2). […] A control group was loaded with sucrose only. The blood glucose levels were measured using an Accu-Check Performa portable kit, (Roche Diagnostics Korea Co., Ltd., Seoul, Korea)."}, "[5]": {"experiment": "DPPH radical scavenging activity", "settings": "for IC50 values, DPPH: means ± SE; for times more active than ascorbic acid in DPPH radical scavenging: ratio of IC50 values versus ascorbic acid", "procedure": "DPPH radical scavenging activity of each sample for the inhibition of diabetic complications was evaluated as described previously. Methanol solution (100 μL) containing some concentrations of the sample or ascorbic acid (0.2 mg/mL) as a positive control was mixed with 0.2 mM DPPH (100 μL) in wells of a 96-well microplate. Each reaction volume was mixed and allowed to stand in the dark at 28 °C for 30 min. […] The DPPH solution was freshly prepared daily, and was covered and kept in the dark at 4 °C until the measurements were made. Measurements were performed at least in triplicate."}, "[6]": {"tested_on": "MCF-7 cells", "parameters": "method as in PMID 18386789", "settings": "by inhibiting Cdk 2 activity; cited from earlier work"}}}
{"smiles": "CCCCCC=CCC=CCCCCCCCC(=O)O", "note": "[9,12-Octadecadienoic acid, 9,12-octadecadienoic acid]", "values": [{"measurement": "IC50 values, AGE (inhibition of AGEs formation)", "setting": "[1]", "value": "15.4 ± 1.8", "unit": "µg/mL"}, {"measurement": "times more active than aminoguanidine in inhibition of AGEs formation", "setting": "[1]", "value": 3.54, "unit": "times"}, {"measurement": "IC50", "setting": "[2]", "value": 56.3, "unit": "µM"}, {"measurement": "times more active than acarbose against α-amylase", "setting": "[2]", "value": 10.02, "unit": "times"}, {"measurement": "IC50 values, α–Glucosidase", "setting": "[3]", "value": "3.4 ± 1.5", "unit": "µg/mL"}, {"measurement": "times more active than acarbose against α-glucosidase", "setting": "[3]", "value": 22.21, "unit": "times"}, {"measurement": "effect on blood glucose levels", "setting": "[4]", "value": "significant suppressive effect"}, {"measurement": "IC50 values, DPPH", "setting": "[5]", "value": "6.8 ± 1.2", "unit": "µg/mL"}, {"measurement": "times more active than ascorbic acid in DPPH radical scavenging", "setting": "[5]", "value": 3.75, "unit": "times"}]}
{"smiles": "CCCCCCCCCCCCCC(=O)O", "note": "[1-Tridecanecarboxylic acid, 1-tridecanecarboxylic acid]", "values": [{"measurement": "IC50 values, AGE (inhibition of AGEs formation)", "setting": "[1]", "value": "51.2 ± 1.8", "unit": "µg/mL"}, {"measurement": "IC50", "setting": "[2]", "value": 986, "unit": "µM"}, {"measurement": "IC50 values, α–Glucosidase", "setting": "[3]", "value": "60.4 ± 1.2", "unit": "µg/mL"}, {"measurement": "IC50 values, DPPH", "setting": "[5]", "value": "24.5 ± 1.8", "unit": "µg/mL"}]}
{"smiles": "CCCCCCCCCCCCCCCC(=O)O", "note": "[1-Pentadecanecarboxylic acid, 1-pentadecanecarboxylic acid]", "values": [{"measurement": "IC50 values, AGE (inhibition of AGEs formation)", "setting": "[1]", "value": "40.6 ± 0.7", "unit": "µg/mL"}, {"measurement": "IC50", "setting": "[2]", "value": 656, "unit": "µM"}, {"measurement": "IC50 values, α–Glucosidase", "setting": "[3]", "value": "55.4 ± 3.2", "unit": "µg/mL"}, {"measurement": "IC50 values, DPPH", "setting": "[5]", "value": "20.8 ± 1.3", "unit": "µg/mL"}]}
{"smiles": "CC(=O)C=CC1=C(C)CCCC1(C)C", "note": "[4-(2,6,6-trimethyl-1-cyclohexenyl)-3-buten-2-one]", "values": [{"measurement": "IC50 values, AGE (inhibition of AGEs formation)", "setting": "[1]", "value": "48.4 ± 2.3", "unit": "µg/mL"}, {"measurement": "times more active than aminoguanidine in inhibition of AGEs formation", "setting": "[1]", "value": 1.13, "unit": "times"}, {"measurement": "IC50", "setting": "[2]", "value": "[…]"}, {"measurement": "times more active than acarbose against α-amylase", "setting": "[2]", "value": "[…]"}, {"measurement": "cell proliferation of MCF-7 cells", "setting": "[6]", "value": "[…]"}, {"measurement": "IC50 values, α–Glucosidase", "setting": "[3]", "value": "31.5 ± 2.2", "unit": "µg/mL"}, {"measurement": "effect on blood glucose levels", "setting": "[4]", "value": "weak suppressive effect"}, {"measurement": "IC50 values, DPPH", "setting": "[5]", "value": "20.5 ± 1.5", "unit": "µg/mL"}, {"measurement": "times more active than ascorbic acid in DPPH radical scavenging", "setting": "[5]", "value": 1.24, "unit": "times"}]}
{"smiles": "CCCCCCCCCCCCCCCCCC(=O)O", "note": "[1-Heptadecanecarboxylic acid, 1-heptadecanecarboxylic acid]", "values": [{"measurement": "IC50 values, AGE (inhibition of AGEs formation)", "setting": "[1]", "value": "34.7 ± 2.6", "unit": "µg/mL"}, {"measurement": "IC50", "setting": "[2]", "value": 494, "unit": "µM"}, {"measurement": "IC50 values, α–Glucosidase", "setting": "[3]", "value": "46.2 ± 2.5", "unit": "µg/mL"}, {"measurement": "IC50 values, DPPH", "setting": "[5]", "value": "15.6 ± 2.2", "unit": "µg/mL"}]}
{"smiles": "O=C1O[C@H]([C@@H](O)CO)C(O)=C1O", "note": "[Ascorbic acid, reference compound]", "values": [{"measurement": "IC50 values, DPPH", "setting": "[5]", "value": "25.5 ± 0.4", "unit": "µg/mL"}]}
{"smiles": "CCCCCCCCC=CCCCCCCCC(=O)O", "note": "[9-Octadecenoic acid, 9-octadecenoic acid]", "values": [{"measurement": "IC50 values, AGE (inhibition of AGEs formation)", "setting": "[1]", "value": "18.8 ± 1.1", "unit": "µg/mL"}, {"measurement": "IC50", "setting": "[2]", "value": 83.2, "unit": "µM"}, {"measurement": "IC50 values, α–Glucosidase", "setting": "[3]", "value": "4.8 ± 0.9", "unit": "µg/mL"}, {"measurement": "IC50 values, DPPH", "setting": "[5]", "value": "7.6 ± 1.5", "unit": "µg/mL"}]}
{"smiles": "N=C(N)NN", "note": "[Aminoguanidine, reference compound]", "values": [{"measurement": "IC50 values, AGE (inhibition of AGEs formation)", "setting": "[1]", "value": "54.5 ± 0.7", "unit": "µg/mL"}]}
{"smiles": "CCC=CCC=CCC=CCCCCCCCC(=O)O", "note": "[9,12,15-Octadecatrienoic acid, 9,12,15-octadecatrienoic acid]", "values": [{"measurement": "IC50 values, AGE (inhibition of AGEs formation)", "setting": "[1]", "value": "18.2 ± 2.3", "unit": "µg/mL"}, {"measurement": "times more active than aminoguanidine in inhibition of AGEs formation", "setting": "[1]", "value": 2.95, "unit": "times"}, {"measurement": "IC50", "setting": "[2]", "value": 76.1, "unit": "µM"}, {"measurement": "times more active than acarbose against α-amylase", "setting": "[2]", "value": 7.47, "unit": "times"}, {"measurement": "IC50 values, α–Glucosidase", "setting": "[3]", "value": "4.5 ± 2.4", "unit": "µg/mL"}, {"measurement": "times more active than acarbose against α-glucosidase", "setting": "[3]", "value": 16.78, "unit": "times"}, {"measurement": "IC50 values, DPPH", "setting": "[5]", "value": "7.4 ± 0.9", "unit": "µg/mL"}, {"measurement": "times more active than ascorbic acid in DPPH radical scavenging", "setting": "[5]", "value": 3.45, "unit": "times"}]}
{"smiles": "CC(=O)C=CC1C(C)=CCCC1(C)C", "note": "(centres unmarked) [4-(2,6,6-trimethyl-2-cyclohexenyl)-3-buten-2-one]", "values": [{"measurement": "IC50 values, AGE (inhibition of AGEs formation)", "setting": "[1]", "value": "50.5 ± 1.8", "unit": "µg/mL"}, {"measurement": "IC50 values, α–Glucosidase", "setting": "[3]", "value": "33.2 ± 1.8", "unit": "µg/mL"}, {"measurement": "IC50 values, DPPH", "setting": "[5]", "value": "23.2 ± 2.5", "unit": "µg/mL"}]}
